What was measured:
[1] = tested on: LOLRI; experiment: Herbicidal pre-emergence action (Table A3); format: in vivo, Lolium rigidum; conditions: application rate 320 g/ha; visual grading after ca. 3 weeks
Summary of the method: (§1)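 Paired sowings (monocot weed with dicot weed) in potted sandy loam, seeds soil-covered.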

[2] = tested on: MATIN; experiment: Herbicidal post-emergence action (Table B6); format: in vivo, Matricaria inodora; conditions: application rate 320 g/ha; rated visually after about 3 weeks
Summary of the method: (§2)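 Treated at one-leaf stage (2–3 weeks after sowing in sandy loam, greenhouse-grown). Visual efficacy rating after about 3 weeks; 0% = like controls, 100% = complete kill.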

[3] = tested on: POAAN; experiment: Herbicidal post-emergence action (Table B7); format: in vivo, Poa annua; conditions: application rate 320 g/ha
Summary of the method: as §2

[4] = tested on: GLXMA; experiment: Pre-emergence effects on crop plants (Table D4); format: in vivo, Glycine max; conditions: crop plant; application rate 80 g/ha; visual grading after ca. 3 weeks
[5] = tested on: ABUTH; experiment: Herbicidal pre-emergence action (Table A1); format: in vivo, Abutilon theophrasti; conditions: application rate 1280 g/ha; visual grading after ca. 3 weeks vs untreated controls (100% = plants have died off, 0% = as control plants)
Summary of the method: as §1

[6] = tested on: ALOMY; experiment: Herbicidal post-emergence action (Table B2); format: in vivo, Alopecurus myosuroides; conditions: application rate 1280 g/ha; rated visually after about 3 weeks
Summary of the method: as §2

[7] = tested on: ALOMY; experiment: Herbicidal post-emergence action, section E (Table E2); format: in vivo, Alopecurus myosuroides; conditions: application rate 320 g/ha; assessed visually after ca. 3 weeks
Excerpt: (§3) 2 to 3 weeks after sowing, the test plants were sprayed in the single-leaf stage.

[8] = tested on: LOLRI; experiment: Herbicidal pre-emergence action, section C (Table C7); format: in vivo, Lolium rigidum; conditions: application rate 320 g/ha; visual grading after ca. 3 weeks
[9] = tested on: SETVI; experiment: Herbicidal post-emergence action (Table B8); format: in vivo, Setaria viridis; conditions: application rate 1280 g/ha
Summary of the method: as §2

[10] = tested on: ECHCG; experiment: Herbicidal pre-emergence action, section C (Table C6); format: in vivo, Echinochloa crus-galli; conditions: application rate 80 g/ha; visual grading after ca. 3 weeks
[11] = tested on: ALOMY; experiment: Herbicidal pre-emergence action (Table A9); format: in vivo, Alopecurus myosuroides; conditions: application rate 320 g/ha; visual grading after ca. 3 weeks
Summary of the method: as §1

[12] = tested on: ORYZA; experiment: Pre-emergence effects on crop plants (Table D3); conditions: crop plant; application rate 80 g/ha; visual grading after ca. 3 weeks
[13] = tested on: STEME; experiment: Herbicidal pre-emergence action (Table A6); format: in vivo, Stellaria media; conditions: application rate 320 g/ha; visual grading after ca. 3 weeks
Summary of the method: as §1

[14] = tested on: MATIN; experiment: Herbicidal pre-emergence action (Table A4); format: in vivo, Matricaria inodora; conditions: application rate 320 g/ha; visual grading after ca. 3 weeks
Summary of the method: as §1

[15] = tested on: BRSNW; experiment: Pre-emergence effects on crop plants (Table D5); format: in vivo, Brassica napus; conditions: crop plant; application rate 80 g/ha; visual grading after ca. 3 weeks
[16] = tested on: POAAN; experiment: Herbicidal pre-emergence action (Table A7); format: in vivo, Poa annua; conditions: application rate 320 g/ha; visual grading after ca. 3 weeks
Summary of the method: as §1

[17] = tested on: ECHCG; experiment: Herbicidal post-emergence action (Table B3); format: in vivo, Echinochloa crus-galli; conditions: application rate 320 g/ha; rated visually after about 3 weeks
Summary of the method: as §2

[18] = tested on: TRZAS; experiment: Post-emergence effects on crop plants (Table F2); format: in vivo, Triticum aestivum; conditions: application rate 80 g/ha, crop plant TRZAS
Excerpt: as §3

[19] = tested on: ZEAMX; experiment: Post-emergence effects on crop plants (Table F1); format: in vivo, Zea mays; conditions: application rate 320 g/ha, crop plant ZEAMX
Excerpt: as §3

[20] = tested on: SETVI; experiment: Herbicidal post-emergence action, section E (Table E8); format: in vivo, Setaria viridis; conditions: application rate 320 g/ha; assessed visually after ca. 3 weeks
Excerpt: as §3

[21] = tested on: VERPE; experiment: Herbicidal pre-emergence action (Table A11); format: in vivo, Veronica persica; conditions: application rate 320 g/ha; visual grading after ca. 3 weeks
Summary of the method: as §1

[22] = tested on: ALOMY; experiment: Herbicidal pre-emergence action, section C (Table C2); format: in vivo, Alopecurus myosuroides; conditions: application rate 320 g/ha; visual grading after ca. 3 weeks
Excerpt: (§4) Seeds of mono- and dicotyledonous weed plants and crop plants were sown, in plastic or organic planting pots, in sandy loam and covered with soil. The compounds according to the invention, formulated in the form of wettable powders (WP) or as emulsifiable concentrates (EC), were applied to the surface of the covering soil as aqueous suspension or emulsion, with the addition of 0.5% of an additive, at an application rate of 600 1 of water/ha (converted). Following treatment, the pots were placed in a greenhouse and kept under optimum growth conditions for the test plants.

[23] = tested on: BRSNW; experiment: Post-emergence effects on crop plants (Table F5); format: in vivo, Brassica napus; conditions: application rate 80 g/ha, crop plant BRSNW
Excerpt: as §3

[24] = tested on: SETVI; experiment: Herbicidal pre-emergence action (Table A5); format: in vivo, Setaria viridis; conditions: application rate 320 g/ha; visual grading after ca. 3 weeks
Summary of the method: as §1

[25] = tested on: LOLRI; experiment: Herbicidal post-emergence action, section E (Table E6); format: in vivo, Lolium rigidum; conditions: application rate 320 g/ha; assessed visually after ca. 3 weeks
Excerpt: as §3

[26] = tested on: VERPE; experiment: Herbicidal post-emergence action (Table B10); format: in vivo, Veronica persica; conditions: application rate 320 g/ha
Summary of the method: as §2

[27] = tested on: ECHCG; experiment: Herbicidal post-emergence action, section E (Table E5); format: in vivo, Echinochloa crus-galli; conditions: application rate 320 g/ha; assessed visually after ca. 3 weeks
Excerpt: as §3

[28] = tested on: SETVI; experiment: Herbicidal pre-emergence action, section C (Table C10); format: in vivo, Setaria viridis; conditions: application rate 80 g/ha; visual grading after ca. 3 weeks
[29] = tested on: VIOTR; experiment: Herbicidal pre-emergence action, section C (Table C12); format: in vivo, Viola tricolor; conditions: application rate 320 g/ha; visual grading after ca. 3 weeks
Excerpt: as §4

[30] = tested on: ORYZA; experiment: Post-emergence effects on crop plants (Table F3); format: in vivo, Oryza sativa; conditions: application rate 80 g/ha, crop plant ORYZA
Excerpt: as §3

[31] = tested on: GLXMA; experiment: Post-emergence effects on crop plants (Table F4); format: in vivo, Glycine max; conditions: application rate 80 g/ha, crop plant GLXMA
Excerpt: as §3

[32] = tested on: STEME; experiment: Herbicidal post-emergence action (Table B9); format: in vivo, Stellaria media; conditions: application rate 1280 g/ha
Summary of the method: as §2

[33] = tested on: MATIN; experiment: Herbicidal pre-emergence action, section C (Table C8); format: in vivo, Matricaria inodora; conditions: application rate 320 g/ha; visual grading after ca. 3 weeks
[34] = tested on: VERPE; experiment: Herbicidal post-emergence action, section E (Table E9); format: in vivo, Veronica persica; conditions: application rate 320 g/ha; assessed visually after ca. 3 weeks
Excerpt: as §3

[35] = tested on: ECHCG; experiment: Herbicidal pre-emergence action (Table A2); format: in vivo, Echinochloa crus-galli; conditions: application rate 320 g/ha; visual grading after ca. 3 weeks
Summary of the method: as §1

[36] = tested on: KCHSC; experiment: Herbicidal pre-emergence action (Table A10); format: in vivo, Kochia scoparia; conditions: application rate 1280 g/ha; visual grading after ca. 3 weeks
Summary of the method: as §1

[37] = tested on: ZEAMX; experiment: Pre-emergence effects on crop plants (Table D1); format: in vivo, Zea mays; conditions: crop plant; application rate 80 g/ha; visual grading after ca. 3 weeks
[38] = tested on: ABUTH; experiment: Herbicidal post-emergence action (Table B1); format: in vivo, Abutilon theophrasti; conditions: application rate 1280 g/ha; treated at one-leaf stage; rated visually after about 3 weeks vs untreated controls (100% = plants have died, 0% = like control plants)
Summary of the method: as §2

O=C1N(Cc2ccccc2F)CCCC12CCCN(Cc1cccc(F)c1F)C2=O (racemic) [I-003]
pre-emergence activity against LOLRI [1]: 100%
post-emergence activity against MATIN [2]: 90%
post-emergence activity against POAAN [3]: 100%
pre-emergence activity against GLXMA [4]: 10%
pre-emergence activity against ABUTH [5]: 90%
post-emergence activity against ALOMY [6]: 90%
post-emergence activity against ALOMY [7]: 90%
pre-emergence activity against LOLRI [8]: 90%
post-emergence activity against SETVI [9]: 90%
pre-emergence activity against ECHCG [10]: 100%
pre-emergence activity against ALOMY [11]: 90%
pre-emergence activity against ORYZA [12]: 20%
pre-emergence activity against STEME [13]: 90%
pre-emergence activity against MATIN [14]: 90%
pre-emergence activity against BRSNW [15]: 10%
pre-emergence activity against POAAN [16]: 100%
post-emergence activity against ECHCG [17]: 90%
post-emergence activity against TRZAS [18]: 0%
post-emergence activity against ZEAMX [19]: 20%
post-emergence activity against SETVI [20]: 80%
pre-emergence activity against VERPE [21]: 90%
pre-emergence activity against ALOMY [22]: 90%
post-emergence activity against BRSNW [23]: 20%
pre-emergence activity against SETVI [24]: 100%
post-emergence activity against LOLRI [25]: 80%
post-emergence activity against VERPE [26]: 90%
post-emergence activity against ECHCG [27]: 80%
pre-emergence activity against SETVI [28]: 100%
pre-emergence activity against VIOTR [29]: 90%
post-emergence activity against ORYZA [30]: 20%
post-emergence activity against GLXMA [31]: 20%
post-emergence activity against STEME [32]: 100%
pre-emergence activity against MATIN [33]: 90%
post-emergence activity against VERPE [34]: 80%
pre-emergence activity against ECHCG [35]: 100%
pre-emergence activity against KCHSC [36]: 90%
pre-emergence activity against ZEAMX [37]: 10%
post-emergence activity against ABUTH [38]: 90%
